Data on nine molecules can be found in PubChem BioAssay (NCI).

Test systems include ACHN renal; MDA-MB-435; A549 NSCLC; HCT-15 colon; RXF 393 renal; CAKI-1 renal; A498 renal; NCI-H522 lung.
Holding throughout (test): NCI tumour cell line growth inhibition, 48 h

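Each compound was tested at five concentrations against cells in 96-well plates for 48 hours. GI50: concentration for 50% inhibition of growth. Definition used: TGI = concentration required for complete inhibition of growth.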

As to `CC1=C[C@H]2c3c(c(O)c(O)c4oc5c(C)cccc5c(=O)c34)[C@H](c3cc(O)c(O)c4oc5c(C)cccc5c(=O)c34)[C@H]2C(C)(C)C1`, the GI50 was 2.31 µM in the experiment on ACHN renal; 1.63 µM in the experiment with MDA-MB-435; 1.04 µM with A549 NSCLC; 1.29 µM with HCT-15 colon; 1.22 µM in the experiment with RXF 393 renal; 1.5 µM with CAKI-1 renal. For the same molecule, the GI50 with A498 renal was 1.85 µM; in the experiment with NCI-H522 lung it was 1.97 µM. Also, the TGI in the experiment on ACHN renal is 10.7 µM; with MDA-MB-435, 3.87 µM; with A549 NSCLC, 4.85 µM; in the experiment on HCT-15 colon, 10.9 µM; in the experiment with RXF 393 renal it was 3.26 µM; in the experiment with CAKI-1 renal, 9.08 µM. For the same molecule, the TGI in the experiment on A498 renal came out at 5.35 µM; in the experiment on NCI-H522 lung, 4.29 µM.

In the case of `COc1cc(NS(C)(=O)=O)ccc1Nc1c2ccc(Cl)cc2nc2c(OC)cccc12`, the GI50 in the experiment on ACHN renal was 0.0314 µM; in the experiment with MDA-MB-435 it was 0.913 µM; in the experiment with A549 NSCLC, 0.0135 µM; in the experiment with HCT-15 colon, 0.226 µM; in the experiment on RXF 393 renal, 0.411 µM; with CAKI-1 renal, 0.0316 µM. In addition, the figures for the GI50 with A498 renal and in the experiment with NCI-H522 lung were 0.156 µM and 0.222 µM, respectively. Further, the TGI with ACHN renal amounted to 1.5 µM; in the experiment with MDA-MB-435, 16 µM; in the experiment with A549 NSCLC it was 1.35 µM; in the experiment with RXF 393 renal, 3.04 µM; in the experiment with CAKI-1 renal it was 1.87 µM; in the experiment on A498 renal, 2.24 µM. Further, the TGI with NCI-H522 lung was 2.12 µM.

As for `COc1ccc(-c2[nH]c3ccccc3c2C=C(C#N)C#N)cc1`, the GI50 with ACHN renal is 2.26 µM; in the experiment with MDA-MB-435 it was 0.13 µM; in the experiment on A549 NSCLC it was 0.694 µM; in the experiment on HCT-15 colon, 0.587 µM; in the experiment on RXF 393 renal it was 0.511 µM; with CAKI-1 renal, 0.625 µM. The GI50 in the experiment with A498 renal is 0.294 µM; in the experiment with NCI-H522 lung it was 0.798 µM. Besides, the TGI in the experiment with ACHN renal is more than 100 µM; in the experiment on MDA-MB-435 it was 0.469 µM; in the experiment with A549 NSCLC, more than 100 µM; with HCT-15 colon, more than 100 µM; in the experiment with RXF 393 renal it was more than 100 µM; with A498 renal, 2.12 µM. Also, in the experiment on NCI-H522 lung, the TGI turned out to be 10.3 µM.

For `CC(C)=CCC[C@H](C)[C@@H]1CC[C@]2(C)C3CC[C@]4(OC4(C)C)C(CCCO)[C@]3(C)CC[C@@]12C` (stereo partly drawn), the GI50 in the experiment with ACHN renal was 13.7 µM; in the experiment on MDA-MB-435 it was 22.6 µM; in the experiment with A549 NSCLC, 37.7 µM; in the experiment with HCT-15 colon, 26.5 µM; in the experiment with RXF 393 renal it was 18.3 µM; in the experiment with CAKI-1 renal it was 21.7 µM. For the same molecule, the GI50 with A498 renal is 20.1 µM; with NCI-H522 lung it was 32.4 µM. The TGI in the experiment with ACHN renal was 32.4 µM; with MDA-MB-435 it was 48.8 µM; in the experiment with A549 NSCLC, more than 100 µM; with HCT-15 colon, more than 100 µM; with RXF 393 renal, 37.6 µM; in the experiment on CAKI-1 renal, 44.4 µM. Further, the TGI with A498 renal is 37.2 µM; in the experiment on NCI-H522 lung it was more than 100 µM.

With `CCCN(CCC)C(=O)C1=Cc2ccc(-c3ccc(C(=O)N4CCCC4)cc3)cc2N=C(N)C1`, the GI50 in the experiment on ACHN renal is 8.13 µM; in the experiment with MDA-MB-435, 2.51 µM; in the experiment on A549 NSCLC, 7.69 µM; in the experiment with HCT-15 colon, 4.8 µM; in the experiment with RXF 393 renal, 5.13 µM; with CAKI-1 renal it was 7.66 µM. In addition, the figures for the GI50 with A498 renal and in the experiment on NCI-H522 lung were 9.01 µM and 4.68 µM, respectively. The TGI with ACHN renal turned out to be 50.9 µM; with MDA-MB-435 it was 7.58 µM; with A549 NSCLC it was 35.3 µM; with HCT-15 colon it was 23.1 µM; in the experiment with RXF 393 renal, 19.3 µM; with CAKI-1 renal it was 40.3 µM. For the same molecule, the TGI turned out to be 71.1 µM in the experiment on A498 renal and 18.8 µM with NCI-H522 lung.

On to `CC(=O)N1N=C2/C(=C/c3ccccc3)CC(C)CC2C1c1ccccc1` (stereo not drawn), for which the GI50 was 13 µM in the experiment with ACHN renal; 11.2 µM with MDA-MB-435; 13.3 µM with A549 NSCLC; 13.7 µM in the experiment with HCT-15 colon; 25.6 µM with RXF 393 renal; 19.1 µM in the experiment with CAKI-1 renal. Moreover, the GI50 in the experiment with A498 renal was 16.5 µM; in the experiment with NCI-H522 lung it was 13.8 µM. Moreover, the TGI is 26.8 µM with ACHN renal; 27.7 µM in the experiment on MDA-MB-435; 51.5 µM in the experiment with A549 NSCLC; 28.9 µM with HCT-15 colon; more than 100 µM in the experiment with RXF 393 renal; 41.8 µM with CAKI-1 renal. The figures for the TGI with A498 renal and in the experiment on NCI-H522 lung were 30.7 µM and 31.7 µM, respectively.

For the molecule `C[C@@H]1CN(C(=O)c2ccc(NC(=O)c3cc(O[C@H](C)c4c(Cl)ccc(F)c4Cl)c(N)nn3)cc2)C[C@H](C)N1`, the GI50 in the experiment on MDA-MB-435 was 1.88 µM; in the experiment on A549 NSCLC, 3.03 µM; in the experiment with HCT-15 colon, 3.92 µM; in the experiment on RXF 393 renal it was 1.93 µM; in the experiment with A498 renal it was 1 µM; with NCI-H522 lung it was 3.1 µM. The TGI in the experiment with MDA-MB-435 is 16.8 µM; in the experiment on A549 NSCLC, 15.8 µM; with HCT-15 colon it was 15.1 µM; with RXF 393 renal it was 5.29 µM; in the experiment with A498 renal it was 5.33 µM; with NCI-H522 lung, 12.2 µM.

As for `CC1=C(C(=O)Nc2ccc(F)c(Cl)c2)C(c2ccccc2Cl)NC(=S)N1` (stereo not drawn), the GI50 was 17.5 µM in the experiment on ACHN renal; 30.1 µM in the experiment with MDA-MB-435; 24.8 µM with A549 NSCLC; 16.2 µM in the experiment with HCT-15 colon; 16.9 µM in the experiment with RXF 393 renal; 37 µM in the experiment on CAKI-1 renal. The GI50 was 12.9 µM in the experiment with A498 renal and 35.7 µM in the experiment with NCI-H522 lung. The TGI in the experiment on ACHN renal is more than 50 µM; in the experiment on MDA-MB-435, more than 50 µM; in the experiment with A549 NSCLC, more than 50 µM; in the experiment on HCT-15 colon, more than 50 µM; in the experiment with RXF 393 renal, 37.7 µM; in the experiment on CAKI-1 renal, more than 50 µM. Also, the TGI is 48.1 µM with A498 renal and more than 50 µM in the experiment on NCI-H522 lung.

Consider `CC(C)(C)NC(C1=CC(C)(C)c2ccccc2C1=O)c1ccccc1` (stereo not drawn), for which the GI50 was 1.49 µM in the experiment with ACHN renal; 1.98 µM in the experiment on MDA-MB-435; 2.16 µM in the experiment with A549 NSCLC; 1.29 µM in the experiment with HCT-15 colon; 1.22 µM with RXF 393 renal; 3.26 µM in the experiment on CAKI-1 renal. The GI50 was 1.87 µM with A498 renal and 1.1 µM in the experiment with NCI-H522 lung. Moreover, the TGI with ACHN renal stood at 2.82 µM; in the experiment on MDA-MB-435 it was 5.4 µM; in the experiment with A549 NSCLC, 5.25 µM; in the experiment with HCT-15 colon it was 2.68 µM; in the experiment with RXF 393 renal, 2.53 µM; in the experiment with CAKI-1 renal, 13.4 µM. The TGI with A498 renal stood at 6.37 µM; in the experiment with NCI-H522 lung, 2.41 µM.
